Measured values: patent publication US8642788B2, “Activators of executioner procaspases 3, 6 and 7” (The Regents of the University of California, priority 2008, dated 2014)

What was measured:
Assay type in all cases: biochemical
procaspase-6 = biological target: T1, procaspase-6 (Homo sapiens, UniProt P55212); test: Executioner procaspase-6 activation assay (Ac-VEID-AFC fluorogenic substrate); settings: incubation with compound for 5 h at 37° C.; 100 nM procaspase
T1 sequence (P55212 1-293): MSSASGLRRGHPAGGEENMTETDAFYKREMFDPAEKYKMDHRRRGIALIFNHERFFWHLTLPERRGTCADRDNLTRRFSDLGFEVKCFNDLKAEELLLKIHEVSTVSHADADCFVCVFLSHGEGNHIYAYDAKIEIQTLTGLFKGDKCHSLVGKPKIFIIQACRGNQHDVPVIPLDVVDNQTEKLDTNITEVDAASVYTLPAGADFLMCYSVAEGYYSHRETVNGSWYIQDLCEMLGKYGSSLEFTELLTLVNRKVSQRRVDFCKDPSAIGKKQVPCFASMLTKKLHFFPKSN
Description: (§1) The executioner procaspase-3, -6 and -7 activation assay protocol involves incubating the target protein at the physiologically-relevant concentration of 100 nM with activating compounds (ranging from 100 nM to 100 uM) in a total volume of 50 μL consisting of a reaction buffer of 50 mM HEPES, pH 7.4, 50 mM KCl, 1 mM DTT and 0.01% Triton-X100 (to reduce false positive hits due to compound aggregation). The procaspase/small molecule incubations are then agitated at 37° C. and assayed at various time points by addition of the fluorogenic peptide substrate 7-Amino-4-trifluoromethylcoumarin-DEVD (Ac-DEVD-AFC) (procaspases-3, -7) or Ac-VEID-AFC (procaspase-6) to a final concentration of 25 μM and analyzed by a kinetic 30 minute assay (excitation 365 nm and emission 495 nm). The final concentration of DMSO in each well is 3% and has no effect on enzyme stability or activity. […] All components of the assay including protein, substrate and inhibitor are stored as frozen aliquots and thawed immediately prior to the assay.
(§2) Tables 1 and 2. Procaspase activation as a result of incubation with compound for 5 h at 37° C. (+++ EC50˜0.5-10 μM; ++ EC50˜10-50 μM; + EC50˜50-200 μM; -no activation observed; ND not determined).

procaspase-7 = biological target: T2, procaspase-7 (Homo sapiens, UniProt P55210); test: Executioner procaspase-7 activation assay (Ac-DEVD-AFC fluorogenic substrate); settings: incubation with compound for 5 h at 37° C.; 100 nM procaspase
T2 construct: His6 (C); made in house; host or cells: E. coli BL21(DE3)RP, pET-21b
T2 sequence (P55210 1-303): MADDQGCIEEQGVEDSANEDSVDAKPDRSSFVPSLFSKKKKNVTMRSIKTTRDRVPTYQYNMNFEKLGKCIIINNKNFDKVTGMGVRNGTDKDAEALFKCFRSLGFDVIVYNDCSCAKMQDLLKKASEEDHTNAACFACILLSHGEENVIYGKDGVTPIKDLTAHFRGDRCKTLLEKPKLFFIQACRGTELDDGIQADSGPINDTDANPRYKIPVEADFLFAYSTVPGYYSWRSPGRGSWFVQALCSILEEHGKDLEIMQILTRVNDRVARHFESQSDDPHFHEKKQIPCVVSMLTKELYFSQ
Description: as §1, §2

procaspase-3 = biological target: T3, procaspase-3 (Homo sapiens, UniProt P42574); test: Executioner procaspase-3 activation assay (Ac-DEVD-AFC fluorogenic substrate); settings: incubation with compound for 5 h at 37° C.; 100 nM procaspase; read-out: Procaspase Activation 3
T3 construct: His6 (C); made in house; host or cells: E. coli BL21(DE3)RP, pET-23b
T3 sequence (P42574 1-277): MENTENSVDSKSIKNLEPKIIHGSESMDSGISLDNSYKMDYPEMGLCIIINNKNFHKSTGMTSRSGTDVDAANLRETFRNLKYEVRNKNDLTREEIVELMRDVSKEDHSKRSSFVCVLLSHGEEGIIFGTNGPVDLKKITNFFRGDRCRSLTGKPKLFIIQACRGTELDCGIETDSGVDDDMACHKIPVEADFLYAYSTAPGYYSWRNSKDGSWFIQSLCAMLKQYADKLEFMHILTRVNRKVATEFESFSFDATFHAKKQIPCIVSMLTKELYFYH
Description: The executioner procaspase-3, -6 and -7 activation assay protocol involves incubating the target protein at the physiologically-relevant concentration of 100 nM with activating compounds (ranging from 100 nM to 100 uM) in a total volume of 50 μL consisting of a reaction buffer of 50 mM HEPES, pH 7.4, 50 mM KCl, 1 mM DTT and 0.01% Triton-X100 (to reduce false positive hits due to compound aggregation). […] All components of the assay including protein, substrate and inhibitor are stored as frozen aliquots and thawed immediately prior to the assay.

SMILES	EC50 (procaspase-6) [µM]	EC50 (procaspase-7) [µM]	EC50 (procaspase-3) [µM]
COc1ccc(-c2cccc(NC(=O)c3cc4cccc(OC(F)(F)F)c4oc3=O)c2)cc1 [compound 46, 8-Trifluoromethoxy-2-oxo-2H-chromene-3-carboxylic acid (4′-Methoxy-biphenyl-3-yl)-amide]	> 100	> 100	> 100
CCOc1ccc(-c2cccc(NC(=O)c3cc4cccc(O)c4oc3=O)c2)cc1 [compound 68, 8-Hydroxy-2-oxo-2H-chromene-3-carboxylic acid (4′-Ethoxy-biphenyl-3-yl)-amide]	> 100	> 100	> 100
Cn1cc(-c2cccc(NC(=O)c3cc4cccc(O)c4oc3=O)c2)cn1 [compound 171, 8-Hydroxy-2-oxo-2H-chromene-3-carboxylic acid [3-(1-methyl-1H-pyrazol-4-yl)-phenyl]-amide]	> 100	> 100	> 100
CCOc1ccc(-c2cccc(NC(=O)c3cc4cccc(O)c4oc3=O)c2)cc1C [compound 65, 8-Hydroxy-2-oxo-2H-chromene-3-carboxylic acid (4′-ethoxy-3′-methyl-biphenyl-3-yl)-amide]	> 100	> 100	> 100
COc1cncc(-c2cccc(NC(=O)c3cc4cccc(O)c4oc3=O)c2)c1 [compound 131, 8-Hydroxy-2-oxo-2H-chromene-3-carboxylic acid [3-(5-methoxy-pyridin-3-yl)-phenyl]-amide]	> 100	> 100	> 100
O=C(Nc1cccc(-c2ccc3c(c2)CCO3)c1)c1cc2cccc(OC(F)(F)F)c2oc1=O [compound 76, 8-Trifluoromethoxy-2-oxo-2H-chromene-3-carboxylic acid [3-(2,3-dihydro-benzofuran-5-yl)-phenyl]-amide]	> 100	> 100	> 100
COc1ncc(-c2cccc(NC(=O)c3cc4cccc(OC)c4oc3=O)c2)c(OC)n1 [compound 128, 8-Methoxy-2-oxo-2H-chromene-3-carboxylic acid [3-(2,4-dimethoxy-pyrimidin-5-yl)-phenyl]-amide]	> 100	> 100	> 100
O=C(Nc1cccc(-c2ccccc2OC(F)(F)F)c1)c1cc2cccc(O)c2oc1=O [compound 71, 8-Hydroxy-2-oxo-2H-chromene-3-carboxylic acid (2′-trifluoromethoxy-biphenyl-3-yl)-amide]	> 100	> 100	> 100
COc1cncc(-c2cccc(NC(=O)c3cc4cccc(OC)c4oc3=O)c2)c1 [compound 132, 8-Methoxy-2-oxo-2H-chromene-3-carboxylic acid [3-(5-methoxy-pyridin-3-yl)-phenyl]-amide]	> 100	> 100	> 100
COc1cccc2cc(C(=O)Nc3cccc(-c4cnc5ccccc5c4)c3)c(=O)oc12 [compound 84, 8-Methoxy-2-oxo-2H-chromene-3-carboxylic acid [3-Quinolin-3-yl-phenyl]-amide]	> 100	> 100	> 100
O=C(Nc1cccc(N2CCOCC2)c1)c1cc2cccc(O)c2oc1=O [compound 16, 8-Hydroxy-2-oxo-2H-chromene-3-carboxylic acid (3-morpholin-4-yl-phenyl)-amide]	> 100	> 100	> 100
COc1cccc2cc(C(=O)Nc3cccc(-c4ccn[nH]4)c3)c(=O)oc12 [compound 156, 8-Methoxy-2-oxo-2H-chromene-3-carboxylic acid [3-(2H-pyrazol-3-yl)-phenyl]-amide]	> 100	> 100	> 100
CCOc1ccc(-c2cccc(NC(=O)c3cc4cccc(OC)c4oc3=O)c2)cc1C [compound 66, 8-Methoxy-2-oxo-2H-chromene-3-carboxylic acid (4′-ethoxy-3′-methyl-biphenyl-3-yl)-amide]	> 100	> 100	> 100
CCOc1ncccc1-c1cccc(NC(=O)c2cc3cccc(OC)c3oc2=O)c1 [compound 42, 8-Methoxy-2-oxo-2H-chromene-3-carboxylic acid [3-(2-ethoxy-pyridin-3-yl)-phenyl]-amide]	> 100	> 100	> 100
COc1cccc2cc(C(=O)Nc3cccc(-c4ccccc4C#N)c3)c(=O)oc12 [compound 90, 8-Methoxy-2-oxo-2H-chromene-3-carboxylic acid (2′-cyano-biphenyl-3-yl)-amide]	> 100	> 100	> 100
COc1cccc2cc(C(=O)Nc3cccc(-c4cccn4C(=O)OC(C)(C)C)c3)c(=O)oc12 [compound 174, 2-{3-[(8-Methoxy-2-oxo-2H-chromene-3-carbonyl)-amino]-phenyl}-pyrrole-1-carboxylic acid tert-butyl ester]	> 100	> 100	> 100
O=C(Nc1cccc(-c2ccc3[nH]c(=O)[nH]c3c2)c1)c1cc2cccc(O)c2oc1=O [compound 157, 8-Hydroxy-2-oxo-2H-chromene-3-carboxylic acid [3-(2-oxo-2,3-dihydro-1H-benzoimidazol-5-yl)-phenyl]-amide]	> 100	> 100	> 100
COc1cccc2cc(C(=O)Nc3cccc(-c4c(C)noc4C)c3)c(=O)oc12 [compound 154, 8-Methoxy-2-oxo-2H-chromene-3-carboxylic acid [3-(3,5-dimethyl-isoxazol-4-yl)-phenyl]-amide]	> 100	> 100	> 100
COc1cccc2cc(C(=O)Nc3cccc(-c4ccc5nonc5c4)c3)c(=O)oc12 [compound 160, 8-Methoxy-2-oxo-2H-chromene-3-carboxylic acid (3-benzo[1,2,5]oxadiazol-5-yl-phenyl)-amide]	> 100	> 100	> 100
COc1cccc2cc(C(=O)Nc3cccc(-c4ccc5ccccc5c4)c3)c(=O)oc12 [compound 81, 8-Methoxy-2-oxo-2H-chromene-3-carboxylic acid (3-Naphthalen-2-yl-phenyl)-amide]	> 100	> 100	> 100
O=C(Nc1cccc(-c2cn[nH]c2)c1)c1cc2cccc(O)c2oc1=O [compound 149, 8-Hydroxy-2-oxo-2H-chromene-3-carboxylic acid [3-(1H-pyrazol-4-yl)-phenyl]-amide]	> 100	> 100	> 100
CC(=O)Nc1ccccc1-c1cccc(NC(=O)c2cc3cccc(OC(F)(F)F)c3oc2=O)c1 [compound 97, 8-Trifluoromethoxy-2-oxo-2H-chromene-3-carboxylic acid (2′-acetylamino-biphenyl-3-yl)-amide]	> 100	> 100	> 100
COc1cccc2cc(C(=O)Nc3cccc(-c4ccncc4)c3)c(=O)oc12 [compound 20, 8-Methoxy-2-oxo-2H-chromene-3-carboxylic acid (3-pyridin-4-yl-phenyl)-amide]	> 100	–	> 100
